According to ChEMBL document CHEMBL1201862, “PubChem BioAssay data set” (2004):
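Exposure lasted 48 hours, with cells grown in 96-well plates and compounds tested at five concentrations. GI50 marks 50% less growth.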 Activity calls are given as the source filed them. Cut-off read from the data, not from the text of the source: active = GI50 up to about 1.1 µM and inactive = higher.

Experiments:
Assay in all cases: DTP human tumour cell line panel, 48 h
Malme-3M = tested on: Malme-3M
HL-60 = tested on: HL-60
KM12 = tested on: KM12
HOP-62 = tested on: HOP-62
SK-MEL-28 = tested on: SK-MEL-28
K562 = tested on: K562
MDA-MB-231 = tested on: MDA-MB-231
OVCAR-3 = tested on: OVCAR-3
ACHN = tested on: ACHN
786-0 = tested on: 786-0
SK-MEL-2 = tested on: SK-MEL-2
BT-549 = tested on: BT-549
UO-31 = tested on: UO-31
RPMI-8226 = tested on: RPMI-8226
HCT-15 = tested on: HCT-15
MDA-N = tested on: MDA-N
OVCAR-5 = tested on: OVCAR-5
SNB-19 = tested on: SNB-19
M14 = tested on: M14
SF-268 = tested on: SF-268

Row | Structure (SMILES) | GI50 (Malme-3M) | GI50 (HL-60) | GI50 (KM12) | GI50 (HOP-62) | GI50 (SK-MEL-28) | GI50 (K562) | GI50 (MDA-MB-231) | GI50 (OVCAR-3) | GI50 (ACHN) | GI50 (786-0) | GI50 (SK-MEL-2) | GI50 (BT-549) | GI50 (UO-31) | GI50 (RPMI-8226) | GI50 (HCT-15) | GI50 (MDA-N) | GI50 (OVCAR-5) | GI50 (SNB-19) | GI50 (M14) | GI50 (SF-268)
1 | CCOC(=O)C(C)(Cc1ccc(O)cn1)NC(=O)c1ccccc1 (stereo not given) | > 100 µM (inactive) | > 100 µM (inactive) | > 100 µM (inactive) | > 100 µM (inactive) | > 100 µM (inactive) | > 100 µM (inactive) | > 100 µM (inactive) | > 100 µM (inactive) | > 100 µM (inactive) | > 100 µM (inactive) | > 100 µM (inactive) | > 100 µM (inactive) | > 100 µM (inactive) | > 100 µM (inactive) | > 100 µM | > 100 µM (inactive) | > 100 µM (inactive) | > 100 µM (inactive) | > 100 µM (inactive) | > 100 µM (inactive)
2 | CCOC(=O)CCc1ccc(NC(=O)/C=C/c2ccc([N+](=O)[O-])o2)cc1 | 1.49 µM (inactive) | 0.166 µM (active) | 1.56 µM (inactive) | 3.27 µM (inactive) | 0.773 µM (active) | 0.27 µM (active) | 1.8 µM (inactive) | 0.61 µM (active) | 1.34 µM (inactive) | 0.229 µM (active) | 2.06 µM (inactive) | 2.66 µM (inactive) | 1.61 µM (inactive) | 0.286 µM (active) | 1.77 µM | 0.807 µM (active) | 2.34 µM (inactive) | 9.82 µM (inactive) | 0.92 µM (active) | 1.12 µM (inactive)
3 | COc1cccc(Nc2n[nH]c(NS(=O)(=O)c3cc(C)c(Cl)cc3S)n2)c1 | > 100 µM (inactive) | > 100 µM (inactive) | > 100 µM (inactive) | > 100 µM (inactive) | > 100 µM (inactive) | > 100 µM (inactive) | > 100 µM (inactive) | > 100 µM (inactive) | > 100 µM (inactive) | > 100 µM (inactive) | > 100 µM (inactive) | > 100 µM (inactive) | > 100 µM (inactive) | > 100 µM (inactive) | > 100 µM | > 100 µM (inactive) | > 100 µM (inactive) | > 100 µM (inactive) | > 100 µM (inactive) | > 100 µM (inactive)
4 | CC(=C(C(=O)O)C(=O)O)c1cc(-c2cccs2)cc(-c2ccc(Cl)cc2)c1O | 21.6 µM (inactive) | 9.71 µM (inactive) | 9.04 µM (inactive) | 24.1 µM (inactive) | 17.5 µM (inactive) | 5.3 µM (inactive) | 18.2 µM (inactive) | 14.9 µM (inactive) | 15.8 µM (inactive) | 15.2 µM (inactive) | 32.4 µM (inactive) | 15.7 µM (inactive) | 11.9 µM (inactive) | 2.78 µM (inactive) | 14 µM | 16.3 µM (inactive) | 29.4 µM (inactive) | 15.7 µM (inactive) | 17.7 µM (inactive) | 17.9 µM (inactive)
5 | NC(=O)Cc1nc2c(O)ncnc2n1C1OC(CO)C(O)C1O (stereo not given) | > 100 µM (inactive) | > 100 µM (inactive) | > 100 µM (inactive) | > 100 µM (inactive) | > 100 µM (inactive) | > 100 µM (inactive) | > 100 µM (inactive) | > 100 µM (inactive) | > 100 µM (inactive) | > 100 µM (inactive) | > 100 µM (inactive) | > 100 µM (inactive) | > 100 µM (inactive) | > 100 µM (inactive) | > 100 µM | > 100 µM (inactive) | > 100 µM (inactive) | > 100 µM (inactive) | > 100 µM (inactive) | > 100 µM (inactive)
6 | COC1CC(NC(=O)C(F)(F)F)C(OC(C)=O)C(C)O1 (stereo not given) | > 100 µM (inactive) | > 100 µM (inactive) | > 100 µM (inactive) | > 100 µM (inactive) | > 100 µM (inactive) | > 100 µM (inactive) | > 100 µM (inactive) | > 100 µM (inactive) | > 100 µM (inactive) | > 100 µM (inactive) | > 100 µM (inactive) | > 100 µM (inactive) | > 100 µM (inactive) | > 100 µM (inactive) | > 100 µM | > 100 µM (inactive) | > 100 µM (inactive) | > 100 µM (inactive) | > 100 µM (inactive) | > 100 µM (inactive)
7 | O=C1c2cccnc2-c2nccc3c2c1nc1cc(Br)ccc13 | 0.108 µM (active) | 0.0405 µM (active) | 0.147 µM (active) | 0.155 µM (active) | 0.0843 µM (active) | 0.033 µM (active) | 0.103 µM (active) | 0.124 µM (active) | 0.208 µM (active) | 0.0713 µM (active) | 0.165 µM (active) | 0.25 µM (active) | 0.221 µM (active) | 0.0748 µM (active) | 0.0721 µM | 0.225 µM (active) | 0.24 µM (active) | 0.27 µM (active) | 0.0553 µM (active) | 0.134 µM (active)
8 | CC1=NN(c2nc(N)nc(-c3cc4ccccc4oc3=N)n2)C(C)(C)C1 | 17.5 µM (inactive) | 18.2 µM (inactive) | 17.7 µM (inactive) | 21.4 µM (inactive) | 16.5 µM (inactive) | 18.9 µM (inactive) | 20.1 µM (inactive) | 17.7 µM (inactive) | 19 µM (inactive) | 15.3 µM (inactive) | 20 µM (inactive) | 26.7 µM (inactive) | 19.1 µM (inactive) | 19.6 µM (inactive) | 16.1 µM | 16.5 µM (inactive) | 24.9 µM (inactive) | 32.7 µM (inactive) | 20.6 µM (inactive) | 19.1 µM (inactive)
9 | CCCCCCOP(=O)(OCCCCCC)OC(C(=O)OC)C(F)(F)F (stereo not given) | > 100 µM (inactive) | > 100 µM (inactive) | > 100 µM (inactive) | > 100 µM (inactive) | > 100 µM (inactive) | > 100 µM (inactive) | > 100 µM (inactive) | > 100 µM (inactive) | > 100 µM (inactive) | > 100 µM (inactive) | > 100 µM (inactive) | > 100 µM (inactive) | > 100 µM (inactive) | > 100 µM (inactive) | > 100 µM | > 100 µM (inactive) | > 100 µM (inactive) | > 100 µM (inactive) | > 100 µM (inactive) | > 100 µM (inactive)
10 | COc1ccc(-c2c3c(n(C4OC(CO)C(O)C(O)C4O)c(=S)c2C#N)CCC3)cc1 (stereo not given) | 57.8 µM (inactive) | 34.7 µM (inactive) | 59.3 µM (inactive) | 40 µM (inactive) | 35.1 µM (inactive) | 41.9 µM (inactive) | > 100 µM (inactive) | 25.7 µM (inactive) | 38.5 µM (inactive) | 36 µM (inactive) | 58.5 µM (inactive) | 51.2 µM (inactive) | > 100 µM (inactive) | 49.5 µM (inactive) | 85.7 µM | 53.8 µM (inactive) | 74.6 µM (inactive) | 37.7 µM (inactive) | 36.2 µM (inactive) | 62.8 µM (inactive)
11 | COc1ccc(OC)c2c(=O)cc(-c3ccccc3)[nH]c12 | > 100 µM (inactive) | > 100 µM (inactive) | > 100 µM (inactive) | > 100 µM (inactive) | > 100 µM (inactive) | > 100 µM (inactive) | > 100 µM (inactive) | > 100 µM (inactive) | > 100 µM (inactive) | > 100 µM (inactive) | > 100 µM (inactive) | > 100 µM (inactive) | > 100 µM (inactive) | > 100 µM (inactive) | > 100 µM | > 100 µM (inactive) | > 100 µM (inactive) | > 100 µM (inactive) | > 100 µM (inactive) | > 100 µM (inactive)
12 | CCCCSc1n/c(=C\c2ccc(N(C)C)cc2)c2nnnn12 | > 100 µM (inactive) | > 100 µM (inactive) | > 100 µM (inactive) | > 100 µM (inactive) | > 100 µM (inactive) | > 100 µM (inactive) | > 100 µM (inactive) | > 100 µM (inactive) | > 100 µM (inactive) | > 100 µM (inactive) | > 100 µM (inactive) | > 100 µM (inactive) | 73.8 µM (inactive) | > 100 µM (inactive) | > 100 µM | > 100 µM (inactive) | > 100 µM (inactive) | > 100 µM (inactive) | > 100 µM (inactive) | > 100 µM (inactive)
